Results as given in patent publication US9499550B2 (BRISTOL-MYERS SQUIBB COMPANY, priority 2012, dated 2016).
Where two headings read alike, the source gives them in different places.

How the values were obtained:
[1] = system: HCV genotype 1a (H77 strain) replicon in HUH-7 cells; experiment: HCV replicon luciferase reporter assay, genotype 1a; format: cell-based; details: Hepatitis C virus, Huh-7, 72 h, 3 days incubation
Method in brief: (§1)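 Replicon inhibition for both genotypes was measured as Renilla luciferase signal (EnduRen, 7.5 μM final, 2 h) after 3-day, 37° C exposure of replicon-bearing HUH-7 cells in 4% FCS DMEM, 0.5% DMSO. The 1b construct carries S1179I; the 1a H77 construct carries P1496L and S2204I. Twenty-point, 3-fold dilutions were fitted four-parametrically for EC50, and CC50 was taken from multiplexed Cell Titer-Blue.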

[2] = system: HCV genotype 1b (Con1) replicon in HUH-7 cells; experiment: HCV replicon luciferase reporter assay, genotype 1b; format: cell-based; details: Hepatitis C virus, Huh-7, 72 h, 3 days incubation
Method in brief: as §1

[3] = HCV genotype 1a replicon luciferase, read-out: LE_1a (EC50, range)
[4] = HCV genotype 1b replicon luciferase, read-out: LE_1b (EC50, range)
[5] = GETYPE1A, HCV genotype 1a replicon luciferase, read-out: LE_1a (EC50, range)
[6] = GETYPE1B, HCV genotype 1b replicon luciferase, read-out: LE_1b (EC50, range)
[7] = HCV genotype 1a replicon luciferase assay, range class, read-out: LE_1a (EC50, range)
[8] = HCV genotype 1b replicon luciferase assay, range class, read-out: LE_1b (EC50, range)

SMILES | EC50 [1, 3] [nM] | EC50 [2, 4] [nM] | also measured
COc1cc2cc(-c3ccc(OC(C)C)cc3)nc(O[C@@H]3C[C@H]4C(=O)N[C@]5(C(=O)NS(=O)(=O)C6(C)CC6)C[C@H]5/C=C\CC[C@@H](C)C[C@@H](C)[C@H](NC(=O)OC(C)(C)C(F)(F)F)C(=O)N4C3)c2cc1F [Compound 3186, 1,1,1-trifluoro-2-methylpropan-2-yl((2R,6S,7R,9R,13aS,14aR,16aS,Z)-2-((7-fluoro-3-(4-isopropoxyphenyl)-6-methoxyisoquinolin-1-yl)oxy)-7,9-dimethyl-14a-(((1-methylcyclopropyl)sulfonyl)carbamoyl)-5,16-dioxo-1,2,3,5,6,7,8,9,10,11,13a,14,14a,15,16,16a-hexadecahydrocyclopropa[e]pyrrolo[1,2-a][1,4]diazacyclopentadecin-6-yl)carbamate] | < 5.46 | < 5.46 | 
CCOc1cnc(O[C@@H]2C[C@H]3C(=O)N[C@]4(C(=O)NS(=O)(=O)C5(CF)CC5)C[C@H]4/C=C\CC[C@@H](C)C[C@@H](C)[C@H](NC(=O)OC(C)(C)C(C)(F)F)C(=O)N3C2)c2ccccc12 [Compound 5355] |  |  | EC50 [1, 5]: 1.01 to 5 nM; EC50 [2, 6]: 1.01 to 5 nM
CC[C@@H]1C[C@H](C)CC/C=C\[C@@H]2C[C@@]2(C(=O)NS(=O)(=O)C2CC2)NC(=O)[C@@H]2C[C@@H](Oc3nc4cc(OC)ccc4nc3C(C)C)CN2C(=O)[C@H]1NC(=O)OC(C)(C)C [Compound 4272, tert-butyl ((2R,6S,7R,9R,13aS,14aR,16aS,Z)-14a-((cyclopropylsulfonyl)carbamoyl)-7-ethyl-2-((3-isopropyl-7-methoxyquinoxalin-2-yl)oxy)-9-methyl-5,16-dioxo-1,2,3,5,6,7,8,9,10,11,13a,14,14a,15,16,16a-hexadecahydrocyclopropa[e]pyrrolo[1,2-a][1,4]diazacyclopentadecin-6-yl)carbamate] | 5.01 to 35 | 1.01 to 5 | 
CCCOc1cc2c(Cl)cccc2c(O[C@@H]2C[C@H]3C(=O)N[C@]4(C(=O)NS(=O)(=O)C5(C)CC5)C[C@H]4/C=C\CC[C@@H](C)C[C@@H](C)[C@H](NC(=O)OC(C)(C)C(F)(F)F)C(=O)N3C2)n1 [Compound 1078, 1,1,1-trifluoro-2-methylpropan-2-yl((2R,6S,7R,9R,13aS,14aR,16aS,Z)-2-((5-chloro-3-propoxyisoquinolin-1-yl)oxy)-7,9-dimethyl-14a-(((1-methylcyclopropyl)sulfonyl)carbamoyl)-5,16-dioxo-1,2,3,5,6,7,8,9,10,11,13a,14,14a,15,16,16a-hexadecahydrocyclopropa[e]pyrrolo[1,2-a][1,4]diazacyclopentadecin-6-yl)carbamate] |  |  | EC50 [1, 7]: < 5.46 nM; EC50 [2, 8]: < 5.46 nM
COc1ccc2c(O[C@@H]3C[C@H]4C(=O)N[C@]5(C(=O)NS(=O)(=O)C6(C)CC6)C[C@H]5/C=C\CC[C@@H](C)C[C@@H](C)[C@H](NC(=O)OC(C)(C)C)C(=O)N4C3)ncc(F)c2c1 [Compound 4374, tert-butyl ((2R,6S,7R,9R,13aS,14aR,16aS,Z)-2-((4-fluoro-6-methoxyisoquinolin-1-yl)oxy)-7,9-dimethyl-14a-(((1-methylcyclopropyl)sulfonyl)carbamoyl)-5,16-dioxo-1,2,3,5,6,7,8,9,10,11,13a,14,14a,15,16,16a-hexadecahydrocyclopropa[e]pyrrolo[1,2-a][1,4]diazacyclopentadecin-6-yl)carbamate] | 1.01 to 5 | 0.1 to 0.5 | 
COc1cnc(O[C@@H]2C[C@H]3C(=O)N[C@]4(C(=O)NS(=O)(=O)C5(C)CC5)C[C@H]4/C=C\CC[C@@H](C)C[C@@H](C)[C@H](NC(=O)OC(C)(C)C(F)(F)F)C(=O)N3C2)c2cc(F)ccc12 [Compound 4060] |  |  | EC50 [1, 5]: < 5.46 nM; EC50 [2, 6]: < 5.46 nM
COc1ccc2c(O[C@@H]3C[C@H]4C(=O)N[C@]5(C(=O)NS(=O)(=O)C6(C)CC6)C[C@H]5/C=C\CC[C@@H](C)C[C@@H](C)[C@H](NC(=O)OC(C)(C)C)C(=O)N4C3)nc(OC(C)C)cc2c1 [Compound 3196, tert-butyl ((2R,6S,7R,9R,13aS,14aR,16aS,Z)-2-((3-isopropoxy-6-methoxyisoquinolin-1-yl)oxy)-7,9-dimethyl-14a-(((1-methylcyclopropyl)sulfonyl)carbamoyl)-5,16-dioxo-1,2,3,5,6,7,8,9,10,11,13a,14,14a,15,16,16a-hexadecahydrocyclopropa[e]pyrrolo[1,2-a][1,4]diazacyclopentadecin-6-yl)carbamate] | 0.51 to 1 | 0.1 to 0.5 | 
COc1ccc2c(O[C@@H]3C[C@H]4C(=O)N[C@]5(C(=O)NS(=O)(=O)C6(C)CC6)C[C@H]5/C=C\CC[C@@H](C)C[C@@H](C)[C@H](NC(=O)OC(C)(C)C(F)(F)F)C(=O)N4C3)cnnc2c1 [Compound 4322] |  |  | EC50 [1, 5]: 5.01 to 35 nM; EC50 [2, 6]: 5.01 to 35 nM
COc1cnc(O[C@@H]2C[C@H]3C(=O)N[C@]4(C(=O)NS(=O)(=O)C5(CF)CC5)C[C@H]4/C=C\CC[C@H](C)C[C@@H](C)[C@H](NC(=O)OC4(C(F)(F)F)CCOC4)C(=O)N3C2)c2ccccc12 (stereo partly drawn) [Compound 1065, 3-(trifluoromethyl)tetrahydrofuran-3-yl((2R,6S,7R,9S,13aS,14aR,16aS,Z)-14a-(((1-(fluoromethyl)cyclopropyl)sulfonyl)carbamoyl)-2-((4-methoxyisoquinolin-1-yl)oxy)-7,9-dimethyl-5,16-dioxo-1,2,3,5,6,7,8,9,10,11,13a,14,14a,15,16,16a-hexadecahydrocyclopropa[e]pyrrolo[1,2-a][1,4]diazacyclopentadecin-6-yl)carbamate] |  |  | EC50 [1, 7]: 4.82 to 103 nM; EC50 [2, 8]: < 5.46 nM
CCCOc1cnc(O[C@@H]2C[C@H]3C(=O)N[C@]4(C(=O)NS(=O)(=O)C5(C)CC5)C[C@H]4/C=C\CC[C@H](C)C[C@@H](C)[C@H](NC(=O)OC(C)(C)C)C(=O)N3C2)c2ccccc12 [Compound 5078, tert-butyl ((2R,6S,7R,9S,13aS,14aR,16aS,Z)-7,9-dimethyl-14a-(((1-methylcyclopropyl)sulfonyl)carbamoyl)-5,16-dioxo-2-((4-propoxyisoquinolin-1-yl)oxy)-1,2,3,5,6,7,8,9,10,11,13a,14,14a,15,16,16a-hexadecahydrocyclopropa[e]pyrrolo[1,2-a][1,4]diazacyclopentadecin-6-yl)carbamate] | 4.82 to 103 | 4.82 to 103 | EC50 ([1]; HCV genotype 1a replicon luciferase, read-out: LE_1a (EC50)): 28.9 nM; EC50 ([2]; HCV genotype 1b replicon luciferase, read-out: LE_1b (EC50)): 8.73 nM
CC[C@@H]1C[C@H](C)CC/C=C\[C@@H]2C[C@@]2(C(=O)NS(=O)(=O)C2(C)CC2)NC(=O)[C@@H]2C[C@@H](Oc3ncc(N4CCOCC4)c4ccccc34)CN2C(=O)[C@H]1NC(=O)OC(C)(C)C(F)(F)F [Compound 5419, 1,1,1-trifluoro-2-methylpropan-2-yl((2R,6S,7R,9R,13aS,14aR,16aS,Z)-7-ethyl-9-methyl-14a-(((1-methylcyclopropyl)sulfonyl)carbamoyl)-2-((4-morpholinoisoquinolin-1-yl)oxy)-5,16-dioxo-1,2,3,5,6,7,8,9,10,11,13a,14,14a,15,16,16a-hexadecahydrocyclopropa[e]pyrrolo[1,2-a][1,4]diazacyclopentadecin-6-yl)carbamate] | 1.01 to 5 | 0.51 to 1 | 
COc1cc2ccnc(O[C@@H]3C[C@H]4C(=O)N[C@]5(C(=O)NS(=O)(=O)C6(C)CC6)C[C@H]5/C=C\CC[C@@H](C)C[C@@H](C)[C@H](NC(=O)OC(C)(C)C(C)(F)F)C(=O)N4C3)c2cc1OC [Compound 5377, 3,3-difluoro-2-methylbutan-2-yl((2R,6S,7R,9R,13aS,14aR,16aS,Z)-2-((6,7-dimethoxyisoquinolin-1-yl)oxy)-7,9-dimethyl-14a-(((1-methylcyclopropyl)sulfonyl)carbamoyl)-5,16-dioxo-1,2,3,5,6,7,8,9,10,11,13a,14,14a,15,16,16a-hexadecahydrocyclopropa[e]pyrrolo[1,2-a][1,4]diazacyclopentadecin-6-yl)carbamate] | 1.01 to 5 | 1.01 to 5 | 
COc1ccc2c(O[C@@H]3C[C@H]4C(=O)N[C@]5(C(=O)NS(=O)(=O)C6(C)CC6)C[C@H]5/C=C\CC[C@@H](C)C[C@@H](C)[C@H](NC(=O)OC(C)(C)C(F)(F)F)C(=O)N4C3)ncc(-c3ccc(OC)nc3)c2c1 [Compound 4178] |  |  | EC50 [1, 5]: < 5.46 nM; EC50 [2, 6]: < 5.46 nM
COc1cc2ccnc(O[C@@H]3C[C@H]4C(=O)N[C@]5(C(=O)NS(=O)(=O)C6(F)CC6)C[C@H]5/C=C\CC[C@@H](C)C[C@@H](C)[C@H](NC(=O)OC(C)(C)C)C(=O)N4C3)c2cc1Cl [Compound 4024, tert-butyl (2R,6S,7R,9R,13aS,14aR,16aS,Z)-2-(7-chloro-6-methoxyisoquinolin-1-yloxy)-14a-(1-fluorocyclopropylsulfonylcarbamoyl)-7,9-dimethyl-5,16-dioxo-1,2,3,5,6,7,8,9,10,11,13a,14,14a,15,16,16a-hexadecahydrocyclopropa[e]pyrrolo[1,2-a][1,4]diazacyclopentadecin-6-ylcarbamate] | < 5.46 | < 5.46 | 
